Data published in patent US11021507B2, “Myricetin derivative and preparing method thereof, and application of same for treating colitis, preventing and treating colitis tumorigenesis, and treating colorectal cancer” (MARINE BIOMEDICAL RESEARCH INSTITUTE OF QINGDAO CO., LTD., priority 2016, dated 2021).

Key:
[1] = Water solubility test (equilibrium solubility in pure water, LC/MS); format: physicochemical; conditions: 37° C.
Description: Water solubility test for myricetin derivative M5, M6 and M10
Instrument: Waters Alliance e2695 LC/MS; chromatographic column: Waters×Bridge C18 4.6×150 mm.
Appropriate amount of said myricetin derivative was weighed and dissolved in methanol to prepare a solution of 1 mg/ml respectively, which was diluted with methanol to different concentrations of working solution as standard samples for testing.
2. 1 mL of ultrapure water was added into a 1.5 ml transparent EP tube. Appropriate amount of said myricetin derivative was each added into a transparent EP tube, followed by vortex mixation and ultrasonication till the drug was no longer dissolved (the solution appeared cloudy or had suspended particles). The mixture was then placed in an incubating oscillator for shaking at the temperature of (37±1) ° C., 100 r/min, for 24 hours, to achieve a sufficient solubility balance. 24 hours later, the saturated solution was taken out for centrifugation at 3000 r/min for 15 min. The supernatant was immediately filtered through a 0.45 μm microporous membrane, and the initial part of the filtrate was discarded. Samples were added for chromatography. The peak area was measured and the equilibrium solubility of each compound in pure water was calculated using a standard curve.

[2] = tested on: azomethane (AOM)/dextran sulfate sodium (DSS)-induced chronic ulcerative colitis and inflammation-associated tumorigenesis; assay: AOM/DSS-induced chronic ulcerative colitis and inflammation-associated tumorigenesis in mice; format: in vivo, C57BL/6 mice
Text: Determination of therapeutic effect of myricetin derivative M10 on azomethane (AOM)/dextran sulfate sodium (DSS)-induced chronic ulcerative colitis and inflammation-associated tumorigenesis.
Compound tested and control drugs: myricetin derivative M10, control compound myricetin, aspirin (Sigma).
Experimental animals: C57BL/6 mice, 20 to 22 g, both male and female, SPF grade provided by Beijing Vital Lihua Experimental Animal Company, and mice were fed with standard animal feed.
Animal models of AOM/DSS-induced chronic colitis and inflammation-associated tumorigenesis: 48 C57BL/6 mice were randomly divided into six groups with eight mice in each group, including model group, for which 0.5% CMC-Na was administered intragastrically every day; aspirin group, for which 100 mg/kg of aspirin (dissolved in 0.5% CMC-Na) was administered intragastrically; myricetin control group, for which 100 mg/kg of myricetin (dissolved in 0.5% CMCNa) was administered intragastrically; M10 high dose group, for which 100 mg/kg of M10 (dissolved in pure water) was administered intragastrically; M10 medium dose group, for which 50 mg/kg of M10 (dissolved in pure water) was administered intragastrically; M10 low dose group, for which 25 mg/kg of M10 (dissolved in pure water) was administered intragastrically.
Preparation of chronic ulcerative colitis mice model: said groups of mice were intraperitoneally injected with 10 mg/kg of azoxymethane (AOM) on day one. Purified drinking water containing 2% dextran sulfate sodium (DSS) was freshly made and provided on day one and on the next six consecutive days, the replaced by purified drinking water for the next seven consecutive days. The above procedure was then repeated for 3 more times.
M10-treated group: 200 mg of M10 was weighed and dissolved in 10 mL of 0.5% CMC-Na solution (20 mg/mL), and consecutively diluted 2 times and 5 times for future use. 0.2 mL of each prepared solutions was given intragastrically to mice (the body weight was assumed as 20 g per mouse), namely divided into high, medium or small dose groups. Myricetin control group: 200 mg of myricetin was weighed and dissolved in 10 mL of 0.5% CMC-Na. Aspirin-treated group: 200 mg of aspirin was weighed and dissolved in 10 mL of 0.5% CMC-Na. Administration method: The body weight of mice was measured daily, and drugs were administered at 0.01 mL/g (100 mg/kg) per day for 12 consecutive weeks. 4. Animal observation and treatment methods: weight, diet, diarrhea (or bloody stools) etc. were observed daily.
At the end of the experiment, mice were sacrificed. The colon and small intestine were dissected out for visual observation and pathological analysis. Pathological examination methods and evaluation criteria: the mice colons of each group were fixed with 10% formalin, followed by routine paraffin embedding, sectioning and HE staining. The developmental degree of colonic inflammation and colon cancer in each group of mice was evaluated under microscopic observation.

[3] = tested on: endoplasmic reticulum stress signaling molecules GRP78, ATF6, PelF-2a and IREa; assay: AOM/DSS-induced endoplasmic reticulum stress in mouse colon (FIG. 9); format: in vivo, C57BL/6 mice
Text: FIG. 9 illustrates the mechanism of M10 in inhibiting endoplasmic reticulum stress induced by AOM/DSS in Example 13;

[4] = tested on: signaling molecules ATG3, ATG5, ATG7, ATG12, and ATG1611; assay: Cellular autophagy caused by AOM/DSS-induced endoplasmic reticulum stress in colonic epithelial cells (FIG. 10); format: in vivo, C57BL/6 mice
Text: FIG. 10 illustrates the mechanism of M10 in inhibiting cellular autophagy and colonic epithelial cell proliferation and carcinogenesis caused by AOM/DSS-induced endoplasmic reticulum stress in Example 13;

KM mice = assay: Acute toxicity experiment, maximum tolerated dose in mice; format: in vivo
Description: Acute Toxicity Experiment on Myricetin Derivative M10, Testing Maximum Tolerated Dose in Mice.
Animal germ line: KM mice
The KM mice with quarantine conformity were selected for the experiment. 10 mice weighing 18 g-22 g each after fasting were randomly selected, labeled and housed in separate cages.
In accordance with the acute toxicity testing method in Healthy Food Inspection and Evaluation Technical Specifications (2003 edition), sample solutions were prepared and administered twice intragastrically within 24 hours with the maximum dose of 20 mL/kg. Mice were monitored 1, 4, 8, 24, 48, 72, 96, 120, 144, 168 and 336 hours respectively after drug administration, and the maximum tolerable dose in mice was calculated if no mouse died.

O=c1c(O[C@@H]2O[C@H](CO)[C@@H](O[C@@H]3O[C@H](CO)[C@H](O)[C@H](O)[C@H]3O)[C@H](O)[C@H]2O)c(-c2cc(O)c(O)c(O)c2)oc2cc(O)cc(O)c12 [M10]
Solubility (in words) ([1]; 24 h, per Table 2): excellent solubility
solubility at 24 h ([1]; ultrapure water, thermodynamic from solid): > 100 mg/mL
Pathological analysis of colon tissue (colon cancer) ([2]; 100 mg/kg aspirin or myricetin, M10 25-100 mg/kg, 12 weeks, FIG. 8): significant activity of preventing and treating colon cancer
Symptoms of AOM/DSS-induced chronic colitis (body weight loss, loose stools, blood in stool) ([2]; M10 25, 50 and 100 mg/kg intragastrically, 12 weeks): significantly alleviated
Number of colon tumor nodules ([2]; all doses (25, 50, 100 mg/kg), after 12 weeks, FIG. 6 and FIG. 7): significantly reduced
Loss of body weight induced by AOM/DSS ([2]; intragastric, 12 weeks, week 10 to 12, FIG. 4): significantly prevented
Swollen endoplasmic reticulum membrane, irregular fracture arrangement ([3]; FIG. 9A): significantly alleviated
Activation of stress signaling molecules GRP78, ATF6, PelF-2a and IREa ([3]; FIG. 9B): significantly inhibited
Autophagic vacuoles in colonic epithelial cells with mitochondrial swelling ([4]; FIG. 10A): significantly alleviated
Activation of signaling molecules ATG3, ATG5, ATG7, ATG12 and ATG1611 ([4]; FIG. 10B): significantly inhibited
Maximum tolerable dose in mice (KM mice; administered twice intragastrically within 24 hours, 0.02 mL/g, 250 mg/mL, 14 days observation): more than 5 g/kg
Toxicity during whole observation period (KM mice; fourteen days observation): no obvious toxicity
Death (KM mice; mouse, in vivo): No death
